Values of other authors as cited in US8168224B2, “Sodium alginate microsphere vascular embolus containing water-soluble drug and preparation and application thereof” (Beijing Shengyiyao Science & Technology Development Co., …, priority 2007, dated 2012).

Columns and labels:
[1] = system: human ovary cancer strain 3AO; settings: 3AO cells in vitro, compared with cisplatin (cDDP)
[2] = system: human liver cancer cell strain HepG2; settings: combination with TNF
acute non-APL (ANPL) = settings: versus Ara-C, Homoharringtonine, VCR and DNR
[3] = system: rabbit Vx2 hepatic transplantation carcinoma; settings: hepatic artery catheter perfusion; dose dependent
primary liver cancer = settings: 20 mg/d for 5 consecutive days
[4] = system: human ovary cancer cell strain SKOV3; settings: As2O3 within normal clinical dosage range; radiation in routine graded dosages
K562 and K562/ADM = settings: dosage-time effect

Substance: Arsenic trioxide [As2O3]
- growth inhibition, apoptosis induction and S phase block compared with cDDP [1]: more effective in inhibiting growth, inducing apoptosis and blocking S phase of 3AO
- angiogenesis (angiogenesis in CAM): inhibit angiogenesis
- combination effect on inducing apoptosis [2]: synergistic
- cross drug resistance (acute non-APL (ANPL)): free from cross drug resistance with Ara-C, Homoharringtonine and VCR, but partly has cross drug resistance with DNR
- inhibition of rabbit Vx2 hepatic transplantation carcinoma [3]: significantly effective in treating tumors
- growth of HUVECs (HUVECs): inhibit growth of HUVECs
- side effects (primary liver cancer; 4 courses, local pump administration): No explicit side effects
- PR (lesions shrank by 50% plus, no new lesions) (primary liver cancer; 17 patients unsuitable for surgery, after 4 therapeutic courses): 35.2%
- overall effectiveness rate (primary liver cancer; 17 patients, after 4 therapeutic courses): 41.1%
- radiation enhancement [4]: enhance effect of the radiation therapy
- expression of Bcl-2 protein (K562 and K562/ADM): inhibit expression of Bcl-2 protein of K562 and K562/ADM
